Measured values as given in patent publication US7364900B2, “Multi-lineage directed induction of bone marrow stromal cell differentiation” (University of Medicine and Dentistry of New Jersey, priority 2001, dated 2008).

Tested on: rMSCs
Assay: Induction of nestin-positive endodermal/neuronal precursor cells from marrow stromal cells
Assay type: cell-based, rat
Settings: sub-confluent rMSCs, pre-induction media supplemented with 1 mM BME, 24 hours
Description: Rat MSCs are originally cultured in alpha-Modified Eagle's Medium (alpha-MEM) supplemented with 20% FBS, 2 mM L-glutamine, 100 units per milliliter penicillin, 100 […] streptomycin and 25 nanograms per milliliter amphotericin B. For each passage the cells are plated at about 8,000 cells per square centimeter and grown to confluency. At passage 6 the cells are transferred to DMEM (pH 8.0)/20% FBS without additional supplementation, and maintained beyond passage 14. Subconfluent cultures of rat and human MSCs are maintained in DMEM/20% FBS.
Twenty-four hours before induction of partial differentiation to nestin-positive precursor cells, medium is replaced with a pre-induction medium consisting of DMEM, 20% FBS and 1 millimolar β-mercaptoethanol. The cells are then transferred to a serum free endodermal/neuronal precursor induction medium composed of DMEM and 1-10 millimolar β-mercaptoethanol. […] To effect further differentiation to pancreatic islet cell phenotype, the partially differentiated nestin-positive endodermal/neuronal precursor cells are transferred to serum-free DMEM containing 1-10 mM β-mercaptoethanol with and without 10 nanograms/ml basic fibroblast growth factor (bFGF).
rMSCs are initially maintained in sub-confluent cultures in pre-induction media supplemented with 1 mM beta-mercaptoethanol (BME) for 24 hours. […]

SMILES: OCCS [BME, beta-mercaptoethanol]
- changes in morphology: no changes in morphology are evident
